Assays:
Assay in all cases: KINOMEscan competition binding
Conditions in all cases: compound 10.0 µM
ACVR1B (human) = ACVR1B (human) (UniProt P36896)
AKT1 (human) = AKT1 (human) (UniProt P31749)
AURKA (human) = AURKA (human) (UniProt O14965)
CAMK1D (human) = CAMK1D (human) (UniProt Q8IU85)
CDK11B (human) = CDK11B (human) (UniProt P21127)
CDK18 (human) = CDK18 (human) (UniProt Q07002)
CDK7 (human) = CDK7 (human) (UniProt P50613)
CSNK1G2 (human) = CSNK1G2 (human) (UniProt P78368)
CSNK1G3 (human) = CSNK1G3 (human) (UniProt Q9Y6M4)
DMPK (human) = DMPK (human) (UniProt Q09013)
EPHA1 (human) = EPHA1 (human) (UniProt P21709)
EPHB3 (human) = EPHB3 (human) (UniProt P54753)
FGFR2 (human) = FGFR2 (human) (UniProt P21802)
FRK (human) = FRK (human) (UniProt P42685)
INSR (human) = INSR (human) (UniProt P06213)
[1] = system: KIT (human), P10721 [D816V]
MAP2K2 (human) = MAP2K2 (human) (UniProt P36507)
MAP2K3 (human) = MAP2K3 (human) (UniProt P46734)
MAP3K3 (human) = MAP3K3 (human) (UniProt Q99759)
MAP4K5 (human) = MAP4K5 (human) (UniProt Q9Y4K4)
MAPK3 (human) = MAPK3 (human) (UniProt P27361)
MARK4 (human) = MARK4 (human) (UniProt Q96L34)
MST1R (human) = MST1R (human) (UniProt Q04912)
MST4 (human) = MST4 (human) (UniProt Q9P289)
NLK (human) = NLK (human) (UniProt Q9UBE8)
NUAK2 (human) = NUAK2 (human) (UniProt Q9H093)
PAK6 (human) = PAK6 (human) (UniProt Q9NQU5)
PAK7 (human) = PAK7 (human) (UniProt Q9P286)
PRKAA2 (human) = PRKAA2 (human) (UniProt P54646)
PRKACA (human) = PRKACA (human) (UniProt P17612)
PRKD3 (human) = PRKD3 (human) (UniProt O94806)
RIOK3 (human) = RIOK3 (human) (UniProt O14730)
ROS1 (human) = ROS1 (human) (UniProt P08922)
RPS6KA5 KD1 (human) = RPS6KA5 KD1 (human) (UniProt O75582)
SRPK1 (human) = SRPK1 (human) (UniProt Q96SB4)
SRPK3 (human) = SRPK3 (human) (UniProt Q9UPE1)
STK35 (human) = STK35 (human) (UniProt Q8TDR2)
STK36 (human) = STK36 (human) (UniProt Q9NRP7)
[2] = biological target: TYK2 JH1 catalytic (human) (UniProt P29597)
WEE1 (human) = WEE1 (human) (UniProt P30291)

AKT1 (human), sequence (P31749 whole entry, looked up): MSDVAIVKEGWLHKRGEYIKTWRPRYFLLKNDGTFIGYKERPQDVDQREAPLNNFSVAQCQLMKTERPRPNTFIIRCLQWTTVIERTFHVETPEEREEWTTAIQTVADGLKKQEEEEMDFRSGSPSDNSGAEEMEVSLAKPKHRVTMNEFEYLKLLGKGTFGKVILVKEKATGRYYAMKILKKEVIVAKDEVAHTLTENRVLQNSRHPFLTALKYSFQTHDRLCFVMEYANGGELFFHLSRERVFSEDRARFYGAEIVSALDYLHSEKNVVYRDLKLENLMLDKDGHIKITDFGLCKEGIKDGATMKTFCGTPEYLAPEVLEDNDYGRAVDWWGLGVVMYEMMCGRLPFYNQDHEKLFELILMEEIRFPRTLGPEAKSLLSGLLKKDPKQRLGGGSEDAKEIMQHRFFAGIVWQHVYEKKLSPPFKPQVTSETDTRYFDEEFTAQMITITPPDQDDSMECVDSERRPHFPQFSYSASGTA
MAP2K2 (human), sequence (P36507 whole entry, looked up): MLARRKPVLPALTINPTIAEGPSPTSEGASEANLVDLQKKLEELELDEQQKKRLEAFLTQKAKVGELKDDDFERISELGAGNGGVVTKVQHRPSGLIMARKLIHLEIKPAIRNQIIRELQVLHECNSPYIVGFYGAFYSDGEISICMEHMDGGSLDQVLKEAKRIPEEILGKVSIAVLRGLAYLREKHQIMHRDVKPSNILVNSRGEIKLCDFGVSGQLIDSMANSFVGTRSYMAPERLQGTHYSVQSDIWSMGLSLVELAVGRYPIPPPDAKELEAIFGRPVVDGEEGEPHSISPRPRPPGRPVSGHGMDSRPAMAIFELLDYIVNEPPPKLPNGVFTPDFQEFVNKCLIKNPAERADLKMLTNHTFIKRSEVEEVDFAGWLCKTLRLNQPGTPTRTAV
MAP3K3 (human), sequence (Q99759 whole entry, looked up): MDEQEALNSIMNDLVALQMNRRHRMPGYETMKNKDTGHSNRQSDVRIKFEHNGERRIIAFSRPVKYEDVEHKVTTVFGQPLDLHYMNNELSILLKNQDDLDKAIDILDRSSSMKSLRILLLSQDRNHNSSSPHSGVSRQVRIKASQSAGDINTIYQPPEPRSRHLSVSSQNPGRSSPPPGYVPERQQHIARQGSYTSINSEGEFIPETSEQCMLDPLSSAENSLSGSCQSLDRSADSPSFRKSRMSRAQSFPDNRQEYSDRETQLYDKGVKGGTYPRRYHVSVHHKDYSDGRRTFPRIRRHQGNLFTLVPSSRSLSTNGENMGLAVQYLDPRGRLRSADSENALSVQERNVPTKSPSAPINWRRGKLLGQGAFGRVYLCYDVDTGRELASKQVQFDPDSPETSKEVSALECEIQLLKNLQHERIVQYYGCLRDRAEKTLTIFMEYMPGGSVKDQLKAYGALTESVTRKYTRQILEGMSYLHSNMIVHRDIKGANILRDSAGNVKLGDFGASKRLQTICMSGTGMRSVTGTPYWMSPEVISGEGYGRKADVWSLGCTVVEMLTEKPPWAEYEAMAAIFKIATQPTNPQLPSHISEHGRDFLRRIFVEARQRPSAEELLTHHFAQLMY
PRKAA2 (human), sequence (P54646 whole entry, looked up): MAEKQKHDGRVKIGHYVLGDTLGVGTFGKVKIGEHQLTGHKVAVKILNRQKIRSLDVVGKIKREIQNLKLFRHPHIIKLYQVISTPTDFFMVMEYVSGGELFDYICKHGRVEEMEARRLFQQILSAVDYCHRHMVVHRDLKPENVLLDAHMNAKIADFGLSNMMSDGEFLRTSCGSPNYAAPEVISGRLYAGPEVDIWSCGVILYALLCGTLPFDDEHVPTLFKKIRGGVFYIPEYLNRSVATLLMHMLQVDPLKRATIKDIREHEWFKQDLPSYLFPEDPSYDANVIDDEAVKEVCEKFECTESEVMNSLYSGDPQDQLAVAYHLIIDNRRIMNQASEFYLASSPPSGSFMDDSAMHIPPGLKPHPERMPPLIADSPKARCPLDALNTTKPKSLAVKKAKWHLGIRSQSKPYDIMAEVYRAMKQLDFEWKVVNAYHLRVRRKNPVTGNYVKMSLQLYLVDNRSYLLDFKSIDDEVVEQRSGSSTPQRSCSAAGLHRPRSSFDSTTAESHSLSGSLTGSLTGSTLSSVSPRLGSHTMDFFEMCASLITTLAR
INSR (human), sequence (P06213 whole entry, looked up): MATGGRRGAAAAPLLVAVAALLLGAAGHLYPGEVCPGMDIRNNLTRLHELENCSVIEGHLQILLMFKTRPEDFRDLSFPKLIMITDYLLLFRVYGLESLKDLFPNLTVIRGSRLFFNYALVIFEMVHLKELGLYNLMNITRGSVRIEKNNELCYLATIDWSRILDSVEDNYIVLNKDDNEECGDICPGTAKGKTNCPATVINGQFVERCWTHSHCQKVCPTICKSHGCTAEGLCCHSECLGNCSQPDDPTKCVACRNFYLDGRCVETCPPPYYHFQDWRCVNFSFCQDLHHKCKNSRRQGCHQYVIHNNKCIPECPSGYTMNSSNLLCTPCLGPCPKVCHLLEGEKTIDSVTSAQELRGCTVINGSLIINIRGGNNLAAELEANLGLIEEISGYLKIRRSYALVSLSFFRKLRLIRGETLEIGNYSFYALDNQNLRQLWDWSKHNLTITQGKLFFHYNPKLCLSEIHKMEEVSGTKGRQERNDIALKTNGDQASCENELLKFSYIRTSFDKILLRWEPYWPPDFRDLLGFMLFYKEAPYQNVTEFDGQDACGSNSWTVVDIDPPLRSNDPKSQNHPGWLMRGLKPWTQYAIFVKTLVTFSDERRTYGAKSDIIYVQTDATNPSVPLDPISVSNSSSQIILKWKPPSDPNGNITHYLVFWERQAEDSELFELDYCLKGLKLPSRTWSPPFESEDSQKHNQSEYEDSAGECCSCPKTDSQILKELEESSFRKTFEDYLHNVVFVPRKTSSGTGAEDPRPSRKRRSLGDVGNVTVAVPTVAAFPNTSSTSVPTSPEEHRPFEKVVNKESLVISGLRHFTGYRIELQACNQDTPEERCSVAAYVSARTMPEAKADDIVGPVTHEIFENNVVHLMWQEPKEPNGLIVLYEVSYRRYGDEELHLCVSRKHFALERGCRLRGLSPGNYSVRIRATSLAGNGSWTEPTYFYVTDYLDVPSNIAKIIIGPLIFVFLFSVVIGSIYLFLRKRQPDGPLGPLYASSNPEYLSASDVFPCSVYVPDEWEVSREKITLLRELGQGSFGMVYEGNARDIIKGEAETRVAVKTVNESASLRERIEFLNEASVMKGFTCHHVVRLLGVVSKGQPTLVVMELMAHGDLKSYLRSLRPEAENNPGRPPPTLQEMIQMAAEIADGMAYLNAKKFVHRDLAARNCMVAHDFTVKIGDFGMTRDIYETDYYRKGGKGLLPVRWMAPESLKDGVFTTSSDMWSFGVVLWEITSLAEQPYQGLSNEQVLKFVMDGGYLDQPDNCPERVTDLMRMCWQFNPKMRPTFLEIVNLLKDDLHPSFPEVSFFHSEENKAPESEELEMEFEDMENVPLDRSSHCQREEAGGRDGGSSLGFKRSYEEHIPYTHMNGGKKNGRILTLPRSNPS
AURKA (human), sequence (O14965 whole entry, looked up): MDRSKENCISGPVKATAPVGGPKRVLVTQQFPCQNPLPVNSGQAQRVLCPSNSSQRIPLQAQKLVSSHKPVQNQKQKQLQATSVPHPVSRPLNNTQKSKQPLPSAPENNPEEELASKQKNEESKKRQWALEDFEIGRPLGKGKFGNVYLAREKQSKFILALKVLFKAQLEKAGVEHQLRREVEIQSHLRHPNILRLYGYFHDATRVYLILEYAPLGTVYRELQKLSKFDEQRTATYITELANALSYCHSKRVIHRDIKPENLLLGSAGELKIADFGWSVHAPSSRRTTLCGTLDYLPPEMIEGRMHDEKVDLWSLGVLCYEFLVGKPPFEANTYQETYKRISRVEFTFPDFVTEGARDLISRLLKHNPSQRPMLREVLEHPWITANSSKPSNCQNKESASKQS
NLK (human), sequence (Q9UBE8 whole entry, looked up): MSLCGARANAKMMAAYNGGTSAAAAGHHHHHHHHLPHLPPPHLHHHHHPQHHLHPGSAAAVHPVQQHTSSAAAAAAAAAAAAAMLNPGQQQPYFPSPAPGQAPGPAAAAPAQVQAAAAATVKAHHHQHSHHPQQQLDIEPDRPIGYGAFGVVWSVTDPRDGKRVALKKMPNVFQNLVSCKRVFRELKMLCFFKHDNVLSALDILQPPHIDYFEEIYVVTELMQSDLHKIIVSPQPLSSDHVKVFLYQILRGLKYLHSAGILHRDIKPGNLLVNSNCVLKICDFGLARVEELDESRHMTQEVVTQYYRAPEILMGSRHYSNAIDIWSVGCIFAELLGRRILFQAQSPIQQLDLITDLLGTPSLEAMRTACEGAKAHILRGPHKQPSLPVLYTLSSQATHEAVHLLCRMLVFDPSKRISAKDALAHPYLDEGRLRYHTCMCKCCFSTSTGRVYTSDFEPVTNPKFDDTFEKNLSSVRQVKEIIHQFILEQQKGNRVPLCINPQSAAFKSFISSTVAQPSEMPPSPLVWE
RIOK3 (human), sequence (O14730 whole entry, looked up): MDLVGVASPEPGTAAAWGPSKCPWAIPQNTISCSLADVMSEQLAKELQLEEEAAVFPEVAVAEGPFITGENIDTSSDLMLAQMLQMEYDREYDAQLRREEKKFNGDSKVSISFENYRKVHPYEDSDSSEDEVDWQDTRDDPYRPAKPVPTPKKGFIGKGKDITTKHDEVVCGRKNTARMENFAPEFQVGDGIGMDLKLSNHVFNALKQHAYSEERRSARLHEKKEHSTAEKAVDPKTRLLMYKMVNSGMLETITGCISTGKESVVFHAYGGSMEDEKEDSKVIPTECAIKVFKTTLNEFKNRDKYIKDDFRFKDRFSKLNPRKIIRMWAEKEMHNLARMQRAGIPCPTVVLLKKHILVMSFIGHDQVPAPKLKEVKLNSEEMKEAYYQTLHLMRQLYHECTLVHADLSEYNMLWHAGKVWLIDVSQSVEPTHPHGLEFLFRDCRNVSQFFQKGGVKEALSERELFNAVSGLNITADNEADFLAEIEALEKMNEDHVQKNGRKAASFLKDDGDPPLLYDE

SMILES | kinase still bound, per cent of control (ACVR1B (human)) [%] | kinase still bound, per cent of control (AKT1 (human)) [%] | kinase still bound, per cent of control (AURKA (human)) [%] | kinase still bound, per cent of control (CAMK1D (human)) [%] | kinase still bound, per cent of control (CDK11B (human)) [%] | kinase still bound, per cent of control (CDK18 (human)) [%] | kinase still bound, per cent of control (CDK7 (human)) [%] | kinase still bound, per cent of control (CSNK1G2 (human)) [%] | kinase still bound, per cent of control (CSNK1G3 (human)) [%] | kinase still bound, per cent of control (DMPK (human)) [%] | kinase still bound, per cent of control (EPHA1 (human)) [%] | kinase still bound, per cent of control (EPHB3 (human)) [%] | kinase still bound, per cent of control (FGFR2 (human)) [%] | kinase still bound, per cent of control (FRK (human)) [%] | kinase still bound, per cent of control (INSR (human)) [%] | kinase still bound, per cent of control [1] [%] | kinase still bound, per cent of control (MAP2K2 (human)) [%] | kinase still bound, per cent of control (MAP2K3 (human)) [%] | kinase still bound, per cent of control (MAP3K3 (human)) [%] | kinase still bound, per cent of control (MAP4K5 (human)) [%] | also measured
O=C(NOC[C@H](O)CO)c1ccc(F)c(F)c1Nc1ccc(I)cc1F | 100 | 81 | 100 | 89 | 97 | 100 | 83 | 95 | 67 | 90 | 91 | 89 | 100 | 60 | 92 | 87 | 0.2 | 89 | 98 | 69 | kinase still bound, per cent of control (MAPK3 (human)): 86%; kinase still bound, per cent of control (MARK4 (human)): 100%; kinase still bound, per cent of control (MST1R (human)): 78%; kinase still bound, per cent of control (MST4 (human)): 77%; kinase still bound, per cent of control (NLK (human)): 77%; kinase still bound, per cent of control (NUAK2 (human)): 99%; kinase still bound, per cent of control (PAK6 (human)): 94%; kinase still bound, per cent of control (PAK7 (human)): 100%; kinase still bound, per cent of control (PRKAA2 (human)): 97%; kinase still bound, per cent of control (PRKACA (human)): 72%; kinase still bound, per cent of control (PRKD3 (human)): 70%; kinase still bound, per cent of control (RIOK3 (human)): 100%; kinase still bound, per cent of control (ROS1 (human)): 92%; kinase still bound, per cent of control (RPS6KA5 KD1 (human)): 87%; kinase still bound, per cent of control (SRPK1 (human)): 100%; kinase still bound, per cent of control (SRPK3 (human)): 100%; kinase still bound, per cent of control (STK35 (human)): 83%; kinase still bound, per cent of control (STK36 (human)): 74%; kinase still bound, per cent of control [2]: 100%; kinase still bound, per cent of control (WEE1 (human)): 67%
C[C@@H](Oc1cc(-n2cnc3ccc(CN4CCN(C)CC4)cc32)sc1C(N)=O)c1ccccc1C(F)(F)F | 97 | 100 | 100 | 82 | 100 | 100 | 33 | 97 | 100 | 63 | 94 | 100 | 75 | 100 | 100 | 16 | 79 | 52 | 88 | 68 | kinase still bound, per cent of control (MAPK3 (human)): 100%; kinase still bound, per cent of control (MARK4 (human)): 100%; kinase still bound, per cent of control (MST1R (human)): 100%; kinase still bound, per cent of control (MST4 (human)): 95%; kinase still bound, per cent of control (NLK (human)): 100%; kinase still bound, per cent of control (NUAK2 (human)): 1.2%; kinase still bound, per cent of control (PAK6 (human)): 98%; kinase still bound, per cent of control (PAK7 (human)): 60%; kinase still bound, per cent of control (PRKAA2 (human)): 80%; kinase still bound, per cent of control (PRKACA (human)): 100%; kinase still bound, per cent of control (PRKD3 (human)): 12%; kinase still bound, per cent of control (RIOK3 (human)): 6.6%; kinase still bound, per cent of control (ROS1 (human)): 84%; kinase still bound, per cent of control (RPS6KA5 KD1 (human)): 100%; kinase still bound, per cent of control (SRPK1 (human)): 46%; kinase still bound, per cent of control (SRPK3 (human)): 9.6%; kinase still bound, per cent of control (STK35 (human)): 76%; kinase still bound, per cent of control (STK36 (human)): 98%; kinase still bound, per cent of control [2]: 81%; kinase still bound, per cent of control (WEE1 (human)): 100%
C=CC(=O)Nc1cc(NC(=O)c2ccc(C)c(NC(=O)c3ccno3)c2)cc(C(F)(F)F)c1 | 100 | 58 | 95 | 83 | 86 | 91 | 91 | 100 | 96 | 100 | 99 | 99 | 99 | 12 | 92 | 78 | 93 | 100 | 96 | 100 | kinase still bound, per cent of control (MAPK3 (human)): 97%; kinase still bound, per cent of control (MARK4 (human)): 100%; kinase still bound, per cent of control (MST1R (human)): 99%; kinase still bound, per cent of control (MST4 (human)): 91%; kinase still bound, per cent of control (NLK (human)): 93%; kinase still bound, per cent of control (NUAK2 (human)): 97%; kinase still bound, per cent of control (PAK6 (human)): 100%; kinase still bound, per cent of control (PAK7 (human)): 94%; kinase still bound, per cent of control (PRKAA2 (human)): 100%; kinase still bound, per cent of control (PRKACA (human)): 100%; kinase still bound, per cent of control (PRKD3 (human)): 100%; kinase still bound, per cent of control (RIOK3 (human)): 76%; kinase still bound, per cent of control (ROS1 (human)): 100%; kinase still bound, per cent of control (RPS6KA5 KD1 (human)): 82%; kinase still bound, per cent of control (SRPK1 (human)): 86%; kinase still bound, per cent of control (SRPK3 (human)): 100%; kinase still bound, per cent of control (STK35 (human)): 100%; kinase still bound, per cent of control (STK36 (human)): 100%; kinase still bound, per cent of control [2]: 98%; kinase still bound, per cent of control (WEE1 (human)): 100%

Source: the kinase profiling compilation of Christmann-Franck et al. (2016)
